{
  "source": "patent US5837686A",
  "about": "“Peptides and antibodies for treatment of rheumatoid arthritis” (Peptide Therapeutics Limited, priority 1991, dated 1998)",
  "key": {"IgA-α1 AT complex": {"tested_on": "IgA-α1 AT complex", "assay": "HPLC analysis of dissociation of purified IgA-α1 AT complex in vitro", "format": "biochemical, human", "details": "for HPLC minimum: Table 6, minimum concentration giving complex: free IgA ratio of 20%, >500 = no dissociation at highest concentration tested; for anti-complex activity (in words): summary statements after Tables 2-6", "experimental": "The ability of the peptides of the invention to dissociate purified IgA-α1 AT complex in vitro was tested as described below. The anti-rheumatic drug D-penicillamine and other synthetic peptides were used as controls. […] The sample was monitored at wavelength 206 nm at a flow rate of 1 ml/minute with phosphate buffer (0.1M) pH 7.1. They represent the ability of the peptides to dissociate the IgA-α1 AT complex in vitro. In these experiments, the base-lines level comprises a complex: free IgA ratio of 14%. The minimum concentration of peptide taken to produce a positive dissociation effect is that which results in a complex: free IgA ratio at 20%. In the results tables, all the peptide values are expressed in μMoles."}, "[1]": {"tested_on": "alternative complement (C3) pathway", "assay": "Inhibition of C3-activation (IgA-α1 AT complex activation of alternative complement pathway, rabbit RBC lysis)", "format": "biochemical, human", "details": "for C' minimum: Table 6, minimum concentration needed to prevent C3 activation", "experimental": "Various peptides were tested for their ability to prevent the IgA-α1 AT complex from activating the alternative complement (C3) pathway. […] This method was based on the method described by Riches and Stanworth, Immunology Letters, 1980, 1, 363,366, with modification to miniaturise it thus allowing the assay to be carried out on microtitre plates. The initial observation by […] and Ishizaka (J Immunol. […] The non-immune complex IgA-α1 AT had been shown in the past to be the only known soluble complex to activate the alternative pathway complement and inhibit the lysis of the rabbit erythrocytes. This inhibition required biologically active complex. […] Positive and negative controls, serum only controls and serum plus IgA-α1 AT complex controls were included in the assay. 25 μl of a suitable dilution of IgA-α1 AT complex (see (iii) above) was added to the test wells and the plates were centrifuged at 2000 rpm for 1 minute. The plates were then incubated at 37° C. for 11/2 hours. 50 μl of a suitable serum dilution (see (a) above) was added and the plates centrifuged at 2000 rpm for 10 minute, then incubated at 37° C. for 30 minutes. 50 μl of 1% rabbit RBC was added and after a further 30 minutes of 37° C. incubation, the plates were centrifuged at 2000 rpm for 10 minutes. Supernatants were taken as previously. The mean values of each of the serum(s), serum and complex (c+s) and total haemolysis wells were calculated. The % haemolysis with respect to lysis by serum wells was calculated. The peptide was considered to have titred out when % lysis value was equal to the calculated % lysis value given by the c+s mean. The titre point for the peptide was calculated as the concentration in μM of the peptide that just gave greater lysis than the c+s mean value."}},
  "note": "Ends that are not written are not given here.",
  "data": [
    {"compound": "N[C@@H](CS)C(=O)O", "note": "[Cysteine]", "values": [
      {"measurement": "HPLC minimum", "setting": "IgA-α1 AT complex", "result": 250, "unit": "µM"},
      {"measurement": "C' minimum", "setting": "[1]", "result": 16, "unit": "µM"}
    ]},
    {"compound": "CC(C)(S)[C@@H](N)C(=O)O", "note": "[D-Penicillamine]", "values": [
      {"measurement": "HPLC minimum", "setting": "IgA-α1 AT complex", "result": 250, "unit": "µM"},
      {"measurement": "C' minimum", "setting": "[1]", "result": 31, "unit": "µM"}
    ]},
    {"compound": "N[C@@H](CCC(=O)N[C@@H](CS)C(=O)NCC(=O)O)C(=O)O", "note": "[Glutathione]", "values": [
      {"measurement": "HPLC minimum", "setting": "IgA-α1 AT complex", "result": 500, "unit": "µM"},
      {"measurement": "anti-complex activity (in words)", "setting": "IgA-α1 AT complex", "result": "relatively inactive"},
      {"measurement": "C' minimum", "setting": "[1]", "result": 31, "unit": "µM"}
    ]},
    {"compound": "CC(=O)N[C@@H](CS)C(=O)O", "note": "[N-acetyl Cysteine]", "values": [
      {"measurement": "HPLC minimum", "setting": "IgA-α1 AT complex", "result": 500, "unit": "µM"},
      {"measurement": "anti-complex activity (in words)", "setting": "IgA-α1 AT complex", "result": "relatively inactive"},
      {"measurement": "C' minimum", "setting": "[1]", "result": 4, "unit": "µM"}
    ]},
    {"compound": "HGCGGGGnh2 [Peptide 168]", "values": [
      {"measurement": "HPLC %", "setting": "IgA-α1 AT complex; Table 1, minimum peptide concentration giving complex: free IgA ratio of 20% (base-line 14%), 90 minutes at 37° C.", "result": 10, "unit": "µM"},
      {"measurement": "C'", "setting": "[1]; Table 1, minimum concentration of peptide needed to prevent C3 activation", "result": 8, "unit": "µM"}
    ]},
    {"compound": "Substance P (RPKPQQFFGLM; ends and bridges not checked; UniProt P20366 58-68, looked up) [control peptide of Group 6]", "values": [
      {"measurement": "HPLC minimum", "setting": "IgA-α1 AT complex", "result": "> 500", "unit": "µM"},
      {"measurement": "C' minimum", "setting": "[1]", "result": "> 500", "unit": "µM"}
    ]}
  ]
}
